≈ marks a conversion by molar mass, not a printed value. Where two headings read alike, the source gives them in different places.
Legend:
[1] = cited from earlier work
[2] = Solubility in water and solvents; format: physicochemical
[3] = Thermogravimetric analysis (thermal stability); format: physicochemical; details: 250-380° C., argon atmosphere
Description: The thermal stability of the γ-CD. γ-CDP and γ-CDP has been investigated (FIG. 4) using thermogravimetric analysis which was carried out in argon atmosphere. […] This weight loss may be associated to the decomposition of the ester functional groups attaching the aliphatic chains to the CD.
Thermogravimetric (TGA, Netzsch) was carried out from room temperature to 400° C. at a ramping rate of 5° C. min−1 under an Ar flow.

[4] = 20° C., reported value; cited from earlier work
[5] = Release/diffusion using Franz diffusion cell with artificial membrane; format: in vitro ADME; details: control, OA only, within 4 hours

## Oc1ccc(C=Cc2cc(O)cc(O)c2)cc1 [resveratrol]
[1]
  solubility in water: 50 µg/mL (≈ 219 µM)

## NC(=O)c1cccnc1 [niacinamide]
[2]
  solubility in EtOAc upon addition of the CDOs: increases significantly
[2]; alone
  solubility in EtOAc: low solubility

## O=C1O[C@H]([C@@H](O)CO)C([O-])=C1OP(=O)([O-])[O-].O=C1O[C@H]([C@@H](O)CO)C([O-])=C1OP(=O)([O-])[O-].[Mg+2].[Mg+2].[Mg+2] [magnesium ascorbyl phosphate (MgAsc), magnesium ascorbyl phosphate]
[1]
  solubility in water: 8100 µg/mL

## OC[C@H]1O[C@@H]2O[C@H]3[C@H](O)[C@@H](O)[C@@H](O[C@H]4[C@H](O)[C@@H](O)[C@@H](O[C@H]5[C@H](O)[C@@H](O)[C@@H](O[C@H]6[C@H](O)[C@@H](O)[C@@H](O[C@H]7[C@H](O)[C@@H](O)[C@@H](O[C@H]8[C@H](O)[C@@H](O)[C@@H](O[C@H]9[C@H](O)[C@@H](O)[C@@H](O[C@H]1[C@H](O)[C@H]2O)O[C@@H]9CO)O[C@@H]8CO)O[C@@H]7CO)O[C@@H]6CO)O[C@@H]5CO)O[C@@H]4CO)O[C@@H]3CO [γ-CD, γ-Cyclodextrin]
[3]
  weight loss: 60%

## Cc1c(C)c2c(c(C)c1O)CC[C@@](C)(CCC[C@H](C)CCC[C@H](C)CCCC(C)C)O2 [α-tocopherol]
[4]
  viscosity: 4.6 Pa·s

## CN(C)c1ccc2cc3ccc(N(C)C)cc3nc2c1.Cl [Orange Acridine hydrochloride (OA), Orange Acridine hydrochloride]
[1]; 23° C.
  solubility in water: 6000 µg/mL
[5]
  diffusion through the membrane: 92%

## CCCCCCCC/C=C\CCCCCCCC(=O)O [oleic acid]
[4]
  viscosity: 0.0348 Pa·s

From patent publication US20240115709A1, “ASSEMBLY OF ORGANIC SUPRAMOLECULAR VESSELS FOR CONTROLLED DRUG RELEASE” (NOBLE PANACEA LABS, INC., priority 2021, published 2024)
